Consider three compounds from patent publication EP1300161A1, “Cationic lipids suitable for gene transfer” (rubitec Gesellschaft für Innovation und Technologie der …, priority 2001, dated 2003).

Molecules are shown by their SMILES. Entries after “also recorded” stand apart in the source; their conditions may differ.

For data set [1], the system named is COS-7 cell-line. Nature of the data set: Lipofection (luciferase reporter) transfection efficiency in COS-7 cells. The data set is classed as cell-based, African green monkey. An excerpt: Screening / Lipofection studies: For a broad and reproducible testing the transfection properties of systematically varied new cationic lipids, we recently have developed an fully automated high throughput system ([…]. et al., J. Biomol. Screening (2001)). This system, which comprises the entire lipofection process from liposome formation to reporter gene assay, allows to identify candidate cationic lipids and to develop suitable lipofection reagents and protocols based on those lipids. Automation of this process was necessary, because manually testing of various cationic lipids or lipid mixtures is extremely labor intensive and high reproducibility can not be guarantied. Goal of this first step was to find the cationic lipid with the best hydrocarbon chain composition for the development of suitable lipofection reagents and protocols. All lipids with different hydrocarbon chains (lipids 1-16, table 1) which are R-configurated and have chloride as counter ion were tested using a standard protocol: From each lipid, eight different lipoplexes containing equimolar amounts of the helper lipid DOPE were formed using different DNA:lipid-charge ratios from 1:1 - 1:15, resulting in a lipofection profile for each lipid (fig. 1). The COS-7 cell-line was used for this first lipofection study because COS-7 is easy to transfect and differences between the lipids are easy to identify. For comparison, the transfection efficiency of the well know cationic lipid DOTAP at its best lipid/DNA charge ration of 2.5 was also determined in each run. Cell culture: The initial transfection screening was carried out using COS-7 cells. The cells were maintained in 96-well culture plates (Greiner, Frickenhausen, Germany) in 200 μl EMEM/10 % FCS/1 % Penicillin-streptomycin in a humidified atmosphere at 37 °C/5 % CO2. […] For the subsequent quantification of transfection efficiency (part 2) a reporter plasmid carrying the firefly luciferase gene under the control of the CMV promoter is used to form lipoplexes. […]
In general terms: A reporter such as luciferase makes a cellular process visible.

For the next data set, the system named is primary dendritic cells. The data set is described as follows: Lipofection transfection efficiency in primary dendritic cells. The data set is classed as cell-based, human.
The subject of data set [2] is mamma carcinoma cell line MCF-7. Nature of the data set: Lipofection transfection efficiency in MCF-7 cells. In kind it is cell-based.
Data set [3] deals with mamma carcinoma cell line MDA-MB-468. Nature of the data set: Lipofection transfection efficiency in MDA-MB-468 cells. The data set is classed as cell-based.
Data set [4] has as its system polarized cell line MDCK-C7.
Data set [5] is described as follows: Cytotoxicity of lipoplexes (protein content of transfected versus non-transfected cells). In kind it is cell-based, African green monkey. The conditions noted are these: monkey, cos-7 cells; equimolar DOPE, COS-7; read-out: vitality of the cells at maximum transfection efficiency. The method, then: (§1) Goal of this first step was to find the cationic lipid with the best hydrocarbon chain composition for the development of suitable lipofection reagents and protocols. All lipids with different hydrocarbon chains (lipids 1-16, table 1) which are R-configurated and have chloride as counter ion were tested using a standard protocol: From each lipid, […] DNA:lipid-charge ratios from 1:1 - 1:15, resulting in a lipofection profile for each lipid (fig. 1). The COS-7 cell-line was used for this first lipofection study because COS-7 is easy to transfect and differences between the lipids are easy to identify. For comparison, the transfection efficiency of the well know cationic lipid DOTAP at its best lipid/DNA charge ration of 2.5 was also determined in each run. Part 2 (Transfection assays): After lipoplex formation, the robot took the cell culture microtiter plates from an incubator and removed the lid from the plates. Immediately prior to transfection, 100 µl of the culture medium were removed and the lipoplexes were dispensed into the wells (triplicates). The lids were replaced and the MTP were returned to the incubator. […] Assay specific standards and controls were added to the microplates, and luciferase activity and protein content of the lysates were measured. Transfection efficiencies were calculated by dividing luciferase activity by protein content.

In data set [6] the test system is COS-7 cell-line. The data set is described as above. In kind it is cell-based, African green monkey. The conditions noted are these: Chol as helper lipid, ratio 0.7, chloride. The method, then:
as §1

Data set [7] deals with COS-7 cell-line. The data set is described as follows: Lipofection (luciferase reporter) transfection efficiency in COS-7 cells. The data set is classed as cell-based, African green monkey. The source holds these as a separate data set.
[8] abbreviates: racemic, chloride, 70 mol-% cholesterol.
Setting [9] is: racemic, chloride, 70 mol-% cholesterol, MDA-MB-468.

For `CCCCCCCC/C=C\CCCCCCCC(=O)OCC(C[N+](C)(C)C)OC(=O)CCCCCCC/C=C\CCCCCCCC` (stereo not shown) [DOTAP, N-(1(2,-dioleyoyl)propyl)-N,N,N-trimethylammonium chloride, reference compound], the transfection efficiency is reported as 466,72 +/- 320,44 (11) rlu/µg protein/ml in the data set with COS-7 cell-line [1] (COS-7, lower line); 3,18 +/- 5,87 (3) rlu/µg protein/ml in the data set with primary dendritic cells (DC 5day, lower line); 101,65 +/- 93,42 (7) rlu/µg protein/ml in data set [2] (lower line); 92,58 +/- 82,86 (9) rlu/µg protein/ml in data set [3] (MDA-MB468, lower line); 26,64 +/- 3,33 (2) rlu/µg protein/ml in data set [4].

As for `CCCCCCCCCCCCCCN(CCCCCCCCCCCCCC)CC(O)CO` (stereo not shown) [KL-14-analog which was not methylated], the transfection entry in the data set with COS-7 cell-line [1] (not methylated analog) was “did not transfect at all”.

`CCCCCCCCCCCCCC[N+](C)(CCCCCCCCCCCCCC)CC(O)CO` (stereo not shown) [KL-14]: the “transfection efficiency (comparison within the library)” value in the data set on COS-7 cell-line [1] (R-configurated, chloride, equimolar DOPE, COS-7) is given as “most effective; also recorded: highest transfection efficiency”. In data set [5], the viability is ~70%. In the data set on COS-7 cell-line [6], the “toxicity, R- versus S-configuration” value was “statistically similar”. The “factor by which transfection efficiency is reduced in comparison with COS-7-cells” value is given as “about 600” with primary dendritic cells (racemic, chloride, 70 mol-% cholesterol, dendritic cell); “about 12” in data set [2] (setting [8]); “about 12” in data set [3] (setting [9]); “about 100” in data set [4]. Also, the “transfection efficiency, fold increase over DOTAP” value with primary dendritic cells (racemic, chloride, 70 mol-% cholesterol, dendritic cells) is listed as 1.5-2; in data set [4] it was 1.5-2. The “transfection efficiency, DOPE-formulation compared with cholesterol mixture” value in data set [2] (equimolar mixture with DOPE) is “lower”; in data set [3] (equimolar mixture with DOPE, MDA-MB-468), “lower”. For the same compound, the “transfection efficiency, times higher than for DOTAP” value in data set [2] (setting [8]) and in data set [3] (setting [9]) was 8 each time. Moreover, in the data set on COS-7 cell-line [7] (Chol as helper lipid, ratio 0.7, chloride), the “transfection efficiency, R- versus S-configuration” value is recorded as “statistically similar”. Besides, the “Chol/KL-14 ratio giving highest transfection efficiency” value with COS-7 cell-line [7] (Cholesterol as helper lipid) is recorded as 0.5-0.7. For the same compound, the transfection efficiency result in the data set on COS-7 cell-line [7] (Cholesterol as helper lipid, Chol/KL-14 ratios 0.3 - 1.2, compared with DOPE mixtures) is on record as “always higher than for the mixtures of KL-14 with DOPE”; with COS-7 cell-line [7] (DOPE as helper lipid, DOPE/KL-14 ratio 0.3 to 1.2), “very high”. Also, the “transfection efficiency as % of the chloride values” with COS-7 cell-line [7] (racemic, counter ion acetate, cholesterol/KL-14 ratio 0.7) turned out to be 57%. In addition, the “transfection efficiency (comparison of counter ions)” value with COS-7 cell-line [7] (racemic, counter ion chloride, cholesterol/KL-14 ratio 0.7) is on record as “highest transfection efficiency”. For the same compound, the “transfection efficiency as % of the values found for chloride” value in the data set on COS-7 cell-line [7] (racemic, counter ion methylsulfate, cholesterol/KL-14 ratio 0.7) is on record as 70-75%; in the data set with COS-7 cell-line [7] (racemic, counter ion sulfate, cholesterol/KL-14 ratio 0.7) it was 70-75%. In the data set with COS-7 cell-line [7] (without helper lipids), the “transfection efficiency as % of that of the standard lipid DOTAP” value came to 70%.
